In patent US9663561B2, “Methods of treatment of cancer using SRC-modulating peptides” (The University of Toledo, priority 2006, dated 2017):

Assays:
Src and ERK1/2 = test: Activation of Src and ERK1/2 in P-11, A4-11, PY-17 and AAC-19 cells (Western blot); type: cell-based, pig; conditions: for increase in SrcTyr(P)418: n=3
Description: FIGS. 18A and 18B. Cells were exposed to 100 nM ouabain for either 5 or 15 min, and the cell lysates (50 μg/lane) were analyzed by Western blot for active Src or active ERK1/2. Blots were probed first with anti-Tyr(P)^418-Src or anti-pERK antibody, then stripped, and reprobed for total Src or ERK1/2 to ensure equal loading.
FIGS. 18 C and 18D. Cells were treated with indicated concentrations of ouabain for 5 min, and total cell lysates were analyzed for Tyr(P)^418-Src and total Src or pERK1/2 and total ERK1/2 as in FIGS. 18A and 18B. A representative Western blot and combined quantitative data are shown. The quantitative data (relative ratio of pSrc/Src or pERK/ERK) from three independent experiments (mean±S.E.) were calculated relative to the control condition of P-11 cells. *, p<0.05 versus the respective control condition of each cell line. con, control.
(§1) Cells were washed with PBS, solubilized in modified ice-cold radioimmune precipitation assay buffer, and subjected to immunoprecipitation or Western blot analysis. Protein signal was detected using the enhanced chemiluminescence kit and quantified using a Bio-Rad GS-670 imaging densitometer.

LLC-PK1 cells [1] = test: Sensitivity of LLC-PK1-derived cells to selection agents; type: cell-based, pig
Description: Another batch of cells was co-transfected with pEYFP together with the pSuppressor-A4 siRNA and pBade-puro so that the co-expressed EYFP could be used as a marker to pick clones. Empty vector (pSuppressor) or A1 siRNA-transfected cells were co-selected and used as a control. The cells were selected with puromycin (1 μg/ml) 24 h posttransfection. Puromycin-resistant colonies were cloned and expanded. To rescue the Na+/K+-ATPase knockdown cells, cells were transfected with the pRc/CMV-α1AACm1. Selection was initiated with 3 μM ouabain because untransfected cells were very sensitive to ouabain. After about 1 week, ouabain-resistant colonies were isolated and expanded into stable cell lines in the absence of ouabain. G418 was not used because these cells are resistant to it, requiring more than 3 mg/ml to kill the untransfected cells.

Src [2] = target: T1, Src (Sus scrofa, UniProt K7GM45); test: GST-CD3 pulldown of Src from LLC-PK1 cell lysates; type: binding, pig; conditions: 1 mg LLC-PK1 cell lysates
T1 construct: endogenous in cells; host or cells: LLC-PK1 (pig kidney)
Description: FIG. 4C. A Western blot showing that Src was pulled down by GST-CD3 of Na+/K+-ATPase (Na/K) and H+/K+-ATPase (H/K), but not SERCA from 1 mg LLC-PK1 cell lysates.
(§2) Cells were lysed in RIPA buffer containing 1% Nonidet P40, 0.25% sodium deoxycholate, 150 mM NaCl, 1 mM EDTA, 1 mM phenylmethylsulfonyl fluoride, 1 mM sodium orthovanadate, 1 mM NaF, 10 μg/ml aprotinin, 10 μg/mlleupeptin, and 50 mM Tris-HCl (pH 7.4). Cell lysates were cleared by centrifugation at 16,000×g for […], and the supernatants (1 mg) were either immunoprecipitated with anti-α1 antibody or incubated with different GST-fusion proteins. The complexes were then pulled down by either protein G agarose or glutathione beads (Ma et al., 2000; Haas et al., 2002) and analyzed by Western blot.

Src [3] = test: In vitro binding assay of GST-Na+/K+-ATPase constructs with purified or His-tagged Src; design: species or system chicken
Description: (§3) The preparation of chicken c-Src lacking the SH4 domain and GST-Src mutants were done (Ma et al., 2000). GST-NT (amino acid residue 6-90) [SEQ ID NO: 51], GST-CD2 (amino acid residue 152-288) [SEQ ID NO 52], and GST-CD3 (amino acid residue 350-785) [SEQ ID NO: 53] expression vectors were constructed based on the sequence of pig kidney Na+/K+-ATPase α1 subunit (see FIG. 3A).
(§4) The purified Na+/K+-ATPase was solubilized in 1% Triton X-100 PBS and centrifuged at 100,000×g for 30 min. The supernatant was collected for the binding assay. GST-fusion proteins (5 μg) were conjugated on glutathione beads and incubated with the solubilized Na+/K+-ATPase in 500 μl PBS in the presence of 0.5% Triton X-100 at room temperature for 30 min. The beads were washed with the same buffer for four times. The bound Na+/K+ATPase was resolved on 10% SDS-PAGE and detected by Western blot. Reciprocal binding assay using GST-Na+/K+-ATPase constructs (5 μg) and purified Src lacking of first 85 amino acids (200 ng) or His-tagged Src constructs (100 ng) was done similarly. To test if native Na+/K+-ATPase binds Src, the above experiments were repeated in the absence of Triton X-100. To make the Na+/K+-ATPase/Src complex, 2-5 μg of the purified Na+/K+ATPase was incubated with 4.5 U of Src (˜10 ng) in PBS in the absence of Triton X-100 at room temperature for 30 min. The complex was either used for the experiments directly as indicated or collected by centrifugation at 100,000×g for 30 min.

Src [4] = target: T2, Src (Gallus gallus, UniProt P00523); test: as above; design: species or system chicken; conditions: purified Src lacking first 84 amino acids, 200 ng
T2 construct: His; made in house; host or cells: sf-9 cells (Src without the first 85 residues); Escherichia coli BL21 (His-tagged constructs)
Description: as §3, §4

Src [5] = target: T3, Src (Homo sapiens, UniProt P12931); test: Src pY418 autophosphorylation / activity of purified recombinant Src; type: biochemical; conditions: recombinant Src (4.5 U) incubated 30 min, then 2 mM ATP/Mg2+ 5 min
T3 construct: purified recombinant full-length Src from Upstate Biotechnology was used; purchased Upstate Biotechnology (Lake Placid, N.Y.)
Description: (§5) The Src kinase activity was assayed using a commercial kit (Haas et al., 2000). To determine how Na+/K+-ATPase affects Src kinase activity, the purified Src (4.5 U) was incubated with 5 μg of the purified Na+/K+-ATPase in the Src assay buffer for 30 min at room temperature. Afterward, both control Src or the Na+/K+-ATPase-bound Src were exposed to 10 μM ouabain and Src kinase activity was determined. In other experiments, the Src pY418 was measured by anti-pY418 antibody to indicate Src activation (Ma et al., 2000). To do so, the purified Src (4.5 U) was incubated with different amounts of the purified Na+/K+-ATPase or GST-Na+/K+ATPase constructs in phosphate-buffered saline (PBS) for 30 min at 37° C. Afterward, 2 mM ATP/Mg2+ was added. The reaction continued for 5 min at 37° C. and was stopped by addition of SDS sample buffer.
The reaction was stopped by adding 5× loading buffer. pY418 was probed to measure Src activation.

LLC-PK1 cells [6] = test: Recruitment of Src to the Na+/K+-ATPase signaling complex (co-immunoprecipitation); type: cell-based, pig; conditions: 1 μM pretreatment 15 min, then 1 μM ouabain 5 min
Description: FIG. 9C Inhibition of Src blocks ouabain-induced recruitment of Src to the Na+/K+-ATPase signaling complex. LLC-PK1 cells were pretreated with 1 μM PP2 or PP3 for 15 min and then exposed to 1 μM ouabain for 5 min. Cell lysates were immunoprecipitated and analyzed. Values are mean±SE of at least four independent experiments. * p<0.05.
as §2

SYF and SYF+Src cells = test: Protein tyrosine phosphorylation in SYF and SYF+Src cells; type: cell-based, mouse; conditions: SYF+Src cells
Description: FIG. 9B. Both SYF and SYF+Src cells were treated with 100 μM ouabain for 5 min and analyzed as in A. Representative Western blots of three experiments are shown in both A and B.
as §2

PY-17 cells = test: FAK Tyr925 phosphorylation in α1 knockdown cells; type: cell-based, pig; conditions: 1 μM PP2 for 0.5 and 2 h
Description: FIG. 17D. P-11 and PY-17 cells were treated with 1 μM PP2 for 0.5 and 2 h. FAK and Src activation was measured by using the specific antibodies. A representative Western blot is shown, and the same experiments were repeated three times.
as §1

[7] = target: T4, Na+/K+-ATPase/Src complex (Sus scrofa, UniProt P05024); test: Src pY418 phosphorylation of the Na+/K+-ATPase/Src complex (Western blot); type: biochemical
T4 construct: Na+/K+-ATPase was purified from pig kidney outer medulla using the Jorgensen method; tissue Upstate Biotechnology (Src only); host or cells: pig kidney outer medulla (Na+/K+-ATPase)
Description: as §5, §4

[8] = target: T5, purified pig kidney Na+/K+-ATPase (Sus scrofa, UniProt P05024); test: ATPase activity of purified pig kidney Na+/K+-ATPase; type: biochemical
T5 construct: Na+/K+-ATPase was purified from pig kidney outer medulla using the Jorgensen method; from tissue; host or cells: pig kidney outer medulla
Source text: Src, without the first 85 amino acid residues, was purified from sf-9 cells as described (Ma et al., 2000) and used in the initial binding assays to ensure that Src binds to the Na+/K+-ATPase, but not the lipid composition in the purified Na+/K+-ATPase preparation. In subsequent experiments (e.g., phosphorylation and activity assays), purified recombinant full-length Src from Upstate Biotechnology was used. Na+/K+-ATPase was purified from pig kidney outer medulla using the Jorgensen method (Xie et al., 1996) and the preparations with specific activities between 1200 and 1400 μmol Pi/mg/h were used.
GST fusion proteins or His-tagged proteins were expressed in Escherichia coli BL21 and purified on glutathione beads or nickel column.

purified Na+/K+-ATPase = target: T6, purified Na+/K+-ATPase (Sus scrofa, UniProt P05024); test: In vitro GST pulldown binding assay with purified Na+/K+-ATPase; design: species or system pig; conditions: GST-tagged Src truncations and purified Na+/K+-ATPase
T6 construct: Na+/K+-ATPase was purified from pig kidney outer medulla using the Jorgensen method; from tissue; host or cells: pig kidney outer medulla
Description: as §4

Src [9] = target: T1, Src; test: Src pY418 in LLC-PK1 cells transiently transfected with YFP-tagged constructs; type: cell-based, pig; conditions: transient transfection 24 h
Description: FIG. 22A. LLC-PK1 cells were transient-transfected with YFP-tagged ND1, ND, and CD3 for 24 h.
Cells were then lysed in RIPA buffer and probed for pY418. YFP were also transient-transfected into LLC-PK1 cells as control.

In the case of “epidermal growth factor: epidermal growth factor”, the “increase in SrcTyr(P)418” value (Src and ERK1/2; P-11 cells) is reported as 2.5±0.3 fold, the “stimulation of ERK1/2” value (Src and ERK1/2; PY-17 cells) is reported as “able to stimulate ERK1/2” and the “increase in SrcTyr(P)418” value (Src and ERK1/2; PY-17 cells) is reported as 1.7±0.2 fold.

For `CN(CC[C@H](N)CC(=O)N[C@H]1C=C[C@H](n2ccc(N)nc2=O)O[C@@H]1C(=O)O)C(=N)N` [blasticidin], the “sensitivity of knockdown cells” value (LLC-PK1 cells [1]; 15 μg/ml) was “sensitive to blasticidin”.

For “GST-CD3: GST fusion of pig kidney Na+/K+-ATPase α1 amino acid residue 350-785”, the “pulldown of Src from LLC-PK1 cell lysates” value (Src [2]) was “pulled down”, the “interaction with His-tagged SH3SH2 domain of Src” value (Src [3]) was “not the SH3SH2 domain” and the “interaction with His-tagged kinase domain of Src” value (Src [3]) was “interacted with the kinase domain”. For the same compound, the “interaction with Src” value (Src [4]) was “interacted” and the “Src pY418 (autophosphorylation at Tyr418)” value (Src [5]) was “dose-dependent inhibition”.

In the case of `CN[C@@H]1[C@@H](O)[C@@H](O[C@@H]2[C@@H](O)[C@H](O[C@H]3O[C@H]([C@@H](C)O)[C@@H](O)[C@H](O)[C@H]3N)[C@@H](N)C[C@H]2N)OC[C@]1(C)O` [Peptide G418, G418], the “concentration required to kill the untransfected cells” value (LLC-PK1 cells [1]; untransfected cells) is reported as “more than 3 mg/ml”.

In the case of `Nc1ncnc2c1cnn2-c1ccccc1` [PP3], the “block of ouabain-induced recruitment of Src to the Na+/K+-ATPase” value (LLC-PK1 cells [6]) is reported as “failed to block”.

In the case of `CC(C)(C)n1nc(-c2ccc(Cl)cc2)c2c(N)ncnc21` [PP2], the “block of ouabain-induced protein tyrosine phosphorylation” value (SYF and SYF+Src cells) is reported as “able to block” and the “increase in FAK Tyr(P)925 in knockdown cells” value (PY-17 cells) is reported as “sensitive”.

In the case of `[O]=[V]([O-])([O-])[O-]` [vanadate], the “Src pY418 of Na+/K+-ATPase/Src complex” value ([7]; 10-100 μM vanadate) is reported as “no effect on Src pY418”, the “inhibition of the ATPase activity” value ([8]; 100 μM vanadate) is reported as “complete inhibition” and the “inhibition of the ATPase activity” value ([8]; 10-100 μM vanadate) is reported as “completely inhibited the ATPase activity”.

With “LRLEVKLGQGCFGEVWMGTWNGTTRVAIKTLKPGTMSPEAFLQEAQVMKKLRHE [KD1]” the “activation of Na+/K+-ATPase-inhibited Src” value ([7]; competing the binding motif for Src) was “effective in activating the Na+/K+-ATPase-inhibited Src” and the “binding to Na+/K+-ATPase” value (purified Na+/K+-ATPase) was “binds Na+/K+-ATPase”.

“GST-H+/K+-CD3: GST fusion of the CD3 from rat gastric H+/K+-ATPase” was tested, and the “pulldown of Src from LLC-PK1 cell lysates” value (Src [2]) was “pulled down Src”.

For “CD3: YFP-tagged cytosolic domain 3 of Na+/K+-ATPase α1”, the “Src phosphorylation (pY418) in LLC-PK1 cells” value (Src [9]) was “decrease Src phosphorylation”.

With “GST-CD2: GST fusion of pig kidney Na+/K+-ATPase α1 amino acid residue 152-288” the “interaction with His-tagged SH3SH2 domain of Src” value (Src [3]) was “interacted with the SH3SH2 domain”, the “interaction with His-tagged kinase domain of Src” value (Src [3]) was “not the kinase domain” and the “interaction with Src” value (Src [4]) was “interacted”.
